“And” between values parts separate entries of the source, which are not always exact repeats. Equal entries are not always repeated. Toxic doses and inconclusive results are not listed.
System: B6C3F1 mice, Lewis lung carcinoma iv, survival T/C
Test: NCI In Vivo Anticancer Drug Screen. Data for tumor model Lewis Lung Carcinoma (intravenous) in B6C3F1 mice
Settings: endpoint: median survival time, higher = longer survival
Procedure, shortened: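 Tumors were transplanted into mice, which were then dosed with compound or vehicle. Survival was recorded in each group, and the treated figure was divided by the control figure.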

[1] = dose: 12.5 mg/kg/injection, schedule: Q01DX009 (ip), vehicle: saline with Tween-80
[2] = dose: 25.0 mg/kg/injection, schedule: Q01DX009 (ip), vehicle: saline with Tween-80
[3] = dose: 50.0 mg/kg/injection, schedule: Q01DX009 (ip), vehicle: saline with Tween-80
[4] = dose: 100.0 mg/kg/injection, schedule: Q01DX009 (ip), vehicle: saline with Tween-80
[5] = dose: 0.5 mg/kg/injection, schedule: Q01DX009 (ip), vehicle: saline
[6] = dose: 0.5 mg/kg/injection, schedule: Q01DX009 (ip), vehicle: water
[7] = dose: 1.0 mg/kg/injection, schedule: Q01DX009 (ip), vehicle: saline
[8] = dose: 1.0 mg/kg/injection, schedule: Q01DX009 (ip), vehicle: water
[9] = dose: 5.0 mg/kg/injection, schedule: Q01DX009 (ip), vehicle: saline
[10] = dose: 10.0 mg/kg/injection, schedule: Q01DX009 (ip), vehicle: saline
[11] = dose: 12.5 mg/kg/injection, schedule: Q01DX009 (ip), vehicle: saline
[12] = dose: 25.0 mg/kg/injection, schedule: Q01DX009 (ip), vehicle: saline
[13] = dose: 50.0 mg/kg/injection, schedule: Q01DX009 (ip), vehicle: saline
[14] = dose: 3.12 mg/kg/injection, schedule: Q01DX009 (ip), vehicle: saline with Tween-80
[15] = dose: 6.25 mg/kg/injection, schedule: Q01DX009 (ip), vehicle: saline with Tween-80
[16] = dose: 6.25 mg/kg/injection, schedule: Q01DX009 (ip), vehicle: saline

In the case of `CCCCCC1c2cc(O)ccc2OC1N1CCOCC1` (configuration not stated), the T/C (dose: 6.0 mg/kg/injection, schedule: Q01DX009 (ip), vehicle: saline with Tween-80) is reported as 96 % of control, the T/C (dose: 12.0 mg/kg/injection, schedule: Q01DX009 (ip), vehicle: saline with Tween-80) is reported as 104 % of control and the T/C [1] is reported as 97 % of control. The T/C [2] was 91 % of control, the T/C [3] was 103 % of control and 104 % of control and the T/C [4] was 94 % of control and 96 % of control. The T/C (dose: 200.0 mg/kg/injection, schedule: Q01DX009 (ip), vehicle: saline with Tween-80) was 90 % of control and 99 % of control.

For `O=C1c2c(O)ccc(O)c2C(=O)c2c(NCCNCCO)ccc(NCCNCCO)c21`, the T/C (dose: 0.12 mg/kg/injection, schedule: Q01DX009 (ip), vehicle: saline) was 94 % of control, the T/C (dose: 0.12 mg/kg/injection, schedule: Q01DX009 (ip), vehicle: water) was 104 % of control and the T/C (dose: 0.25 mg/kg/injection, schedule: Q01DX009 (ip), vehicle: saline) was 101 % of control. For the same molecule, the T/C (dose: 0.25 mg/kg/injection, schedule: Q01DX009 (ip), vehicle: water) was 106 % of control, the T/C [5] was 100 % of control and the T/C [6] was 110 % of control. The T/C [7] was 123 % of control and the T/C [8] was 120 % of control.

`CCCCCCCCCCCC(=O)NC1CC(O[C@H]2C[C@](O)(C(=O)CO)Cc3c(O)c4c(c(O)c32)C(=O)c2c(OC)cccc2C4=O)OC(C)C1O` (some centres not stated) was tested, and the T/C (dose: 6.25 mg/kg/injection, schedule: Q01DX009 (ip), vehicle: distilled water + Tween-80) was 96 % of control, the T/C (dose: 12.5 mg/kg/injection, schedule: Q01DX009 (ip), vehicle: distilled water + Tween-80) was 100 % of control and the T/C (dose: 25.0 mg/kg/injection, schedule: Q01DX009 (ip), vehicle: distilled water + Tween-80) was 102 % of control. The T/C (dose: 50.0 mg/kg/injection, schedule: Q01DX009 (ip), vehicle: distilled water + Tween-80) was 119 % of control.

For `NC(=O)c1ccc(N)nc1`, the T/C [5] was 115 % of control and the T/C [7] was 115 % of control.

In the case of `O=NN(CCCl)C(=O)NC1[C@H](O)CCC[C@@H]1O` (some centres not stated), the T/C (dose: 0.32 mg/kg/injection, schedule: Q01DX009 (ip), vehicle: saline) is reported as 96 % of control, the T/C (dose: 0.63 mg/kg/injection, schedule: Q01DX009 (ip), vehicle: saline) is reported as 111 % of control and the T/C (dose: 1.25 mg/kg/injection, schedule: Q01DX009 (ip), vehicle: saline) is reported as 103 % of control and 116 % of control. The T/C [9] was 163 % of control and 173 % of control and the T/C [10] was 98 % of control and 118 % of control.

In the case of `O=CC(O)C(O)C(O)C(O)CO` (configuration not stated), the T/C (dose: 75.0 mg/kg/injection, schedule: Q01DX009 (ip), vehicle: saline) is reported as 101 % of control, the T/C (dose: 150.0 mg/kg/injection, schedule: Q01DX009 (ip), vehicle: saline) is reported as 97 % of control and the T/C (dose: 300.0 mg/kg/injection, schedule: Q01DX009 (ip), vehicle: saline) is reported as 97 % of control. For the same molecule, the T/C (dose: 600.0 mg/kg/injection, schedule: Q01DX009 (ip), vehicle: saline) was 97 % of control and the T/C (dose: 1200.0 mg/kg/injection, schedule: Q01DX009 (ip), vehicle: saline) was 96 % of control.

With `COc1ccc(C[C@H](N)C(=O)NC2C(CO)OC(n3cnc4c(N(C)C)ncnc43)C2O)cc1` (some centres not stated) the T/C [9] was 99 % of control, the T/C [10] was 104 % of control and the T/C (dose: 20.0 mg/kg/injection, schedule: Q01DX009 (ip), vehicle: saline) was 114 % of control. For the same molecule, the T/C (dose: 40.0 mg/kg/injection, schedule: Q01DX009 (ip), vehicle: saline) was 109 % of control and the T/C (dose: 80.0 mg/kg/injection, schedule: Q01DX009 (ip), vehicle: saline) was 114 % of control.

`O=C1C=C2C(=CCOC2O)O1` (configuration not stated) was tested, and the T/C (dose: 0.25 mg/kg/injection, schedule: Q01DX009 (ip), vehicle: Klucel (hydroxypropylcellulose) (HPC)) was 99 % of control, the T/C (dose: 0.5 mg/kg/injection, schedule: Q01DX009 (ip), vehicle: Klucel (hydroxypropylcellulose) (HPC)) was 104 % of control and the T/C (dose: 0.75 mg/kg/injection, schedule: Q01DX009 (ip), vehicle: saline) was 97 % of control. The T/C (dose: 1.0 mg/kg/injection, schedule: Q01DX009 (ip), vehicle: Klucel (hydroxypropylcellulose) (HPC)) was 94 % of control, the T/C (dose: 1.5 mg/kg/injection, schedule: Q01DX009 (ip), vehicle: saline) was 98 % of control and the T/C (dose: 2.0 mg/kg/injection, schedule: Q01DX009 (ip), vehicle: Klucel (hydroxypropylcellulose) (HPC)) was 98 % of control. For the same molecule, the T/C (dose: 3.0 mg/kg/injection, schedule: Q01DX009 (ip), vehicle: saline) was 98 % of control and the T/C (dose: 4.0 mg/kg/injection, schedule: Q01DX009 (ip), vehicle: Klucel (hydroxypropylcellulose) (HPC)) was 94 % of control.

In the case of `C=CCc1cn(C2CC(O)C(CO)O2)c(=O)[nH]c1=O` (configuration not stated), the T/C [11] is reported as 100 % of control, the T/C [12] is reported as 88 % of control and the T/C [13] is reported as 87 % of control. The T/C (dose: 100.0 mg/kg/injection, schedule: Q01DX009 (ip), vehicle: saline) was 100 % of control, the T/C (dose: 200.0 mg/kg/injection, schedule: Q01DX009 (ip), vehicle: saline) was 96 % of control and the T/C (dose: 400.0 mg/kg/injection, schedule: Q01DX009 (ip), vehicle: saline) was 98 % of control.

In the case of `O=C(CCCN1CCC(C(O)c2ccc(F)cc2)CC1)c1ccc(F)cc1` (configuration not stated), the T/C [14] is reported as 102 % of control, the T/C [15] is reported as 101 % of control and the T/C [1] is reported as 105 % of control.

With `Nc1nnc[se]1` the T/C [14] was 122 % of control, the T/C [15] was 123 % of control and the T/C [1] was 123 % of control.

For `CCOC(OCC)C(=O)OCC(=O)[C@]1(O)Cc2c(O)c3c(c(O)c2[C@@H](OC2CC(N)C(O)C(C)O2)C1)C(=O)c1c(OC)cccc1C3=O` (some centres not stated), the T/C (dose: 0.13 mg/kg/injection, schedule: Q01DX009 (ip), vehicle: water) was 113 % of control, the T/C [6] was 116 % of control and the T/C [8] was 112 % of control. The T/C (dose: 2.0 mg/kg/injection, schedule: Q01DX009 (ip), vehicle: water) was 120 % of control.

`CC[C@@]1(O)C(=O)OCc2c1cc1n(c2=O)Cc2cc3ccccc3nc2-1` was tested, and the T/C (dose: 0.37 mg/kg/injection, schedule: Q01DX009 (ip), vehicle: saline with Tween-80) was 102 % of control, the T/C (dose: 0.75 mg/kg/injection, schedule: Q01DX009 (ip), vehicle: saline with Tween-80) was 105 % of control and the T/C (dose: 1.5 mg/kg/injection, schedule: Q01DX009 (ip), vehicle: saline with Tween-80) was 122 % of control.

In the case of `O=P1(N(CCCl)CCCl)NCCCO1` (configuration not stated), the T/C (dose: 6.0 mg/kg/injection, schedule: Q01DX009 (ip), vehicle: saline) is reported as 105 % of control, the T/C [16] is reported as 108 % of control and the T/C (dose: 12.0 mg/kg/injection, schedule: Q01DX009 (ip), vehicle: saline) is reported as 116 % of control. The T/C [11] was 123 % of control, the T/C (dose: 25.0 mg/kg/injection, schedule: Q01DX001 (ip), vehicle: saline) was 110 % of control and the T/C [12] was 191 % of control. The T/C (dose: 37.0 mg/kg/injection, schedule: Q01DX001 (ip), vehicle: saline) was 120 % of control, the T/C (dose: 48.4 mg/kg/injection, schedule: Q01DX001 (ip), vehicle: saline) was 103 % of control and the T/C (dose: 50.0 mg/kg/injection, schedule: Q01DX001 (ip), vehicle: saline) was 116 % of control and 122 % of control. For the same molecule, the T/C [13] was 337 % of control, the T/C (dose: 64.4 mg/kg/injection, schedule: Q01DX001 (ip), vehicle: saline) was 115 % of control and the T/C (dose: 75.0 mg/kg/injection, schedule: Q01DX001 (ip), vehicle: saline) was 171 % of control. For the same molecule, the T/C (dose: 100.0 mg/kg/injection, schedule: Q01DX001 (ip), vehicle: saline) was 151 % of control and 152 % of control and 188 % of control, the T/C (dose: 150.0 mg/kg/injection, schedule: Q01DX001 (ip), vehicle: saline) was 349 % of control and the T/C (dose: 300.0 mg/kg/injection, schedule: Q01DX001 (ip), vehicle: saline) was 230 % of control. For the same molecule, the T/C (dose: 400.0 mg/kg/injection, schedule: Q01DX001 (ip), vehicle: saline) was 312 % of control.

`Nc1n[n+](-c2ccccc2)no1` was tested, and the T/C (dose: 3.13 mg/kg/injection, schedule: Q01DX009 (ip), vehicle: water) was 108 % of control, the T/C (dose: 6.25 mg/kg/injection, schedule: Q01DX009 (ip), vehicle: water) was 100 % of control and the T/C (dose: 12.5 mg/kg/injection, schedule: Q01DX009 (ip), vehicle: water) was 113 % of control. The T/C (dose: 25.0 mg/kg/injection, schedule: Q01DX009 (ip), vehicle: water) was 114 % of control.

`Nc1nc2ccc(NCc3ccc(C(=O)NC(CCC(=O)O)C(=O)O)cc3)cc2c(=O)[nH]1` (configuration not stated) was tested, and the T/C [15] was 111 % of control, the T/C [1] was 97 % of control and the T/C [2] was 100 % of control. The T/C [3] was 116 % of control and the T/C [4] was 119 % of control.

For `O=C(O)C(O)C(O)C1[O][Sb][O]C1C(=O)O` (configuration not stated), the T/C [16] was 103 % of control, the T/C [11] was 108 % of control and the T/C [12] was 98 % of control. For the same molecule, the T/C [13] was 108 % of control.

— PubChem BioAssay AID276 (DTP/NCI, 2004)
